According to patent publication US20160143944A1, “ANTIMICROBIAL COMPOSITIONS COMPRISING HYPOCHLOROUS ACID AND SILVER” (PURICOE, INC., priority 2013, published 2016):

Tested on: Pseudomonas aeruginosa biofilm
Experiment: in vitro wound biofilm model (collagen matrix), biocidal effect
Type: cell-based
Details: 20 min at 35° C., 24 h biofilm in collagen matrix
Experimental: A biofilm test was conducted using hypochlorous acid solutions containing either 200 ppm or 600 ppm AFC. A solution containing a […] combination of silver chelate (30 ppm) and hypochlorous acid (600 ppm) which yielded a final concentration of 200 ppm AFC was also tested. Specifically, the biocidal effects of the solutions were tested using an in vitro wound biofilm model as described in […] et al. (2009), Molnlycke Healthcare. Briefly, a collagen solution was prepared in simulated wound fluid and the collagen was allowed to polymerize at 35° C. for one hour. The collagen matrix was subsequently innoculated with approximately 10^4 colony forming units (CFU) of Pseudomonas aeruginosa and incubated for twenty-four hours. The hypochlorous acid solutions were added to each matrix and incubated at 35° C. for twenty minutes. The tubes were centrifuged to separate the test solutions from the matrices. Subsequently, each matrix was digested with collagenase, washed and any surviving cells were recovered. A biofilm test was conducted to compare the biocidal effects of various hypochlorous acid solutions with or without silver additives, either in form of potassium silver citrate or silver chelate. Specifically, the effects of the solutions on P. aeruginosa biofilm were assessed using an in vitro wound biofilm model as described above. […]

OCl [hypochlorous acid solution, hypochlorous acid]
log reduction of P. aeruginosa colony forming units (CFU) (200 ppm AFC hypochlorous acid solution): one | log reduction of P. aeruginosa colony forming units (CFU) (600 ppm AFC hypochlorous acid solution): seven
